How the values were obtained:
mutant FRBs = target: T1, mutant FRBs (Homo sapiens, UniProt P42345, K2095T/T2098L); test: SeAP transcriptional switch assay, panel of FRB mutants at 2095, 2098, 2101; type: cell-based; details: TLW
T1 construct: The minimal FRB domain comprises amino acids 2025-2114 of human mTor; expressed in transfected cells; host or cells: COS1 cells
Experimental: All FRB mutants were prepared by the Quikchange mutagenesis method (Stratagene) using protocols provided by the manufacturer. Briefly, PCR reactions containing the parent plasmid pBJ5-FRB-VP16-HA or pBJ5-FRB*-VP16-HA and overlapping oligonucleotides containing the relevant base changes were performed with Pfu polymerase (Stratagene, San Diego, Calif.). PCR reactions were digested with the methylation sensitive restriction endonuclease Dpn1 to eliminate the parent plasmid and the reaction was transformed in XL10-Gold Ultracompetent E. coli (Stratagene).
Electroporation details are available upon request. Cells were immediately aliquoted to 2 or 3×96 well plates with flat bottoms. […] Data was analysed with Softmax Pro (Molecular Devices), Microsoft Excel and Prism 3 (GraphPad Software).

FRB* = target: T2, FRB* (Homo sapiens, UniProt P42345+P62942, K2095P/T2098L/W2101F); test: SeAP reporter assay, dimerization of FRB*-VP16 to FKBP3-GAL4DBD in COS-1 cells; type: cell-based
T2 construct: The minimal FRB domain comprises amino acids 2025-2114 of human mTor; expressed in transfected cells; host or cells: COS-1 cells
T2 sequence (P42345 2025-2114 K2095P/T2098L/W2101F): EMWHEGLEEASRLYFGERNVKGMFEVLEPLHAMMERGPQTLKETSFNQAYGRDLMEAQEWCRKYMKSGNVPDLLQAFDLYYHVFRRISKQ
T2 sequence (P62942 whole entry, the tested form may be a part): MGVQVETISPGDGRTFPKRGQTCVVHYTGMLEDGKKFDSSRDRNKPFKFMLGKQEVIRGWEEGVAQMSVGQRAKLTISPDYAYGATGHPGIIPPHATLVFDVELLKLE
Description: Transcription activation by recruitment of chimeric transcriptional activation and DNA binding domains is described. COS-1 cells were electroporated with […] each of the following expression plasmids (Ho, S. N., Biggar, S. R., Spencer, D. M., Schreiber, S. L., and Crabtree, G. R. “Dimeric ligands define a role for transcriptional activation domains in reinitiation.” (1996) Nature 382, 822-826): pG5IL2SX (drives transcription of bacterial secreted alkaline phosphatase (SeAP) through GAL4 DNA binding […] elements), pBJ5-GF3E (which expresses the GAL4 DNA binding domain fused to three copies of human FKBP12), and pBJ5-FRBVP. (which expresses a FRB fusion with the Herpes Simplex Virus VP16 Activation domain) A FRB*-VP16 fusion protein which consists of modified FRB protein fused to the VP16 activation domain was also used selectively. Transfected cells were distributed equally to 96 well plates and were incubated at 37° C. for 24 to 36 hours before media was supplemented with drug in a dilution curve in which each point is represented in quadruplicate. Cells were incubated at 37° C. for an additional 24 hours followed by a 2-hour treatment at 65° C. to inactivate endogenous phosphatases. Each well was supplemented with 100μL of 1 mM methylumbelliferylphosphate dissolved in 2 M diethanolamine buffered to pH 10.0 with carbonate and incubated at 37° C. for 16 hours. Fluorescence was measured with a Fluoroscan (ICN) plate reader at 355 nm transmission and 455 nm emission using Deltasoft software.
Drug efficacy was determined in a three-plasmid transcriptional switch reporter assay. ˜106 COS1 cells were coelectroporated with 2 μg of the DNA binding construct pBJ5-Gal4-FKBP(3), 2 μg pBJ5-VP16 (or the relevant mutant FRB) and 2 μg of the Gal4-SeAP reporter. Electroporation details are available upon request. […] SeAP activity was measured by fluorescence with a Spectamax M2 fluorometer (Molecular Devices, Sunnyvale, Calif.) with transmission set at 355 nm and emmission set at 460 nm. Data was analysed with Softmax Pro (Molecular Devices), Microsoft Excel and Prism 3 (GraphPad Software).

KLW = target: T3, KLW (Homo sapiens, UniProt P42345+P62942, T2098L); test: SeAP transcriptional switch assay, FRB mutant KLW; type: cell-based
T3 construct: The minimal FRB domain comprises amino acids 2025-2114 of human mTor; expressed in transfected cells; host or cells: COS1 cells
T3 sequence (P42345 2025-2114 T2098L): as the sequence (P42345 2025-2114 K2095P/T2098L/W2101F) above, with P71K, F77W counted along it
T3 sequence (P62942 whole entry, the tested form may be a part): as the sequence (P62942 whole entry, the tested form may be a part) above
Experimental: Drug efficacy was determined in a three-plasmid transcriptional switch reporter assay. ˜106 COS1 cells were coelectroporated with 2 μg of the DNA binding construct pBJ5-Gal4-FKBP(3), 2 μg pBJ5-VP16 (or the relevant mutant FRB) and 2 μg of the Gal4-SeAP reporter. Electroporation details are available upon request. Cells were immediately aliquoted to 2 or 3×96 well plates with flat bottoms. After 24 hours incubation media was supplemented with a rapalog in triplicate and in serial two fold dilutions. Following 24 hours further incubation, cells with media were wrapped carefully in plastic wrap and heated to 65° C. for two hours to inactivate endogenous phosphatases. 50 μL of media was transferred to a black 96 well plate (Costar 3915) and supplemented with 1 mM methylumbelliferrylphosphate (Sigma, St. Louis, Mo.) in 1M diethanolamine (pH 10.0 with carbonate). After 16 hours incubation at 37° C. SeAP activity was measured by fluorescence with a Spectamax M2 fluorometer (Molecular Devices, Sunnyvale, Calif.) with transmission set at 355 nm and emmission set at 460 nm. Data was analysed with Softmax Pro (Molecular Devices), Microsoft Excel and Prism 3 (GraphPad Software).

GSK-3βFRB* = GSK-3βFRB* (UniProt P26883+P42345, K2095P/T2098L/W2101F); test: Stabilization of transfected GSK-3β FRB* in MEFs (Western blot); type: cell-based, mouse; parameters: The minimal FRB domain comprises amino acids 2025-2114 of human mTor; GSK-3β (fusion partner); expressed in transfected cells; host or cells: wild-type mouse embryonic fibroblasts (MEFs); details: transiently transfected MEFs, drug for 36 h
Chain of GSK-3βFRB* (P42345 2025-2114 K2095P/T2098L/W2101F): as the sequence (P42345 2025-2114 K2095P/T2098L/W2101F) above
Chain of GSK-3βFRB* (P26883 2-108): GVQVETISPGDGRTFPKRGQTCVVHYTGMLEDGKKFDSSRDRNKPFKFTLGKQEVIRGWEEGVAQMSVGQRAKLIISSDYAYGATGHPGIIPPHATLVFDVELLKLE
Experimental: MEFs were transfected using FuGENE-6 (Roche Applied Science). Plasmid DNA (5 μg per 6 cm dish) was mixed in a 1:2 ratio with the FuGENE-6 reagent in Opti-MEM (Invitrogen Life Technologies) before being applied to the cells growing in DMEM/10% FCS and containing C20-MaRap where appropriate. After 12 hours, the cells were split to 6 well plates before further drug treatments to ensure each well contained an equivalently transfected population.
Western Blot analysis was carried out using cell lysates prepared in RIPA buffer (10 mM Tris pH 7.2, 150 mM NaCl, 0.1% SDS, 1% Triton X-100, 1% deoxycholate, 5 mM EDTA, protease inhibitor cocktail (Invitrogen Life Technologies)) and then separated using standard SDS/PAGE before being transferred to PVDF (Millipore) using standard Western blotting procedures. The anti-GSK-3β antibody, used at 1:2500, the anti-HSP-90 antibody, 1:2500, and the anti-FKBP12 antibody, 1:2500, were purchased from BD Transduction Labs. The anti-β-catenin antibody, 1:2000, and anti-HSP-70 antibody, 1:1000 were purchased from Santa Cruz Biotechnology. The anti-BRG1 antibody, 1:1000, was previously prepared in our laboratory (Khavari, P. A. et al. “BRG1 Contains a Conserved Domain of the SWI2/SNF2 Family Necessary for Normal Mitotic Growth and Transcription.” (1993) Published in Nature 366, 170-174). […]

T1 sequence (P42345 2025-2114 K2095T/T2098L): as the sequence (P42345 2025-2114 K2095P/T2098L/W2101F) above, with P71T, F77W counted along it
T1 sequence (P62942 2-108 partner): as the sequence (P26883 2-108) above, with T49M, I75T, S78P counted along it

C20-(R or S)-methallylrapamycin [C20-MaRap]
binding to the TLW mutant (mutant FRBs): inefficiently | Kd (FRB*; FRB*): 3.1 nM | EC50 (FRB*; FRB*(PLF)-VP16, ±95% confidence intervals): 3.1 ± 0.36 nM | improvement of affinity of KLW over wild-type (KLW; KLW versus wild-type FRB): about 5 fold | EC50 (KLW; single mutation Thr2098 to Leu, read-out: affinity, KLW): 22 nM | GSK-3β FRB* expression (GSK-3βFRB*): restored GSK-3β FRB* expression to normal
